Read-outs that look alike come from different tables or passages of the source.
How the values were obtained:
CYP2B6 = assay: CYP induction in cryopreserved human hepatocytes; format: in vitro ADME; conditions: 50 μM, similar assay
CYP3A4 = assay: CYP induction in cryopreserved human hepatocytes; format: in vitro ADME; conditions: 10 μM, similar assay
bladder urothelium = assay: Bladder epithelium hyperplasia in rat tissue; format: in vivo; conditions: treated rats; pioglitazone 14.5 and 145 mg/Kg/day, MIN-102 25, 100 and 150 mg/Kg/day
2C8 = target: T1, 2C8 (Homo sapiens, UniProt P10632); conditions: Sahi et al.; cited from earlier work
T1 sequence (P10632 1-490): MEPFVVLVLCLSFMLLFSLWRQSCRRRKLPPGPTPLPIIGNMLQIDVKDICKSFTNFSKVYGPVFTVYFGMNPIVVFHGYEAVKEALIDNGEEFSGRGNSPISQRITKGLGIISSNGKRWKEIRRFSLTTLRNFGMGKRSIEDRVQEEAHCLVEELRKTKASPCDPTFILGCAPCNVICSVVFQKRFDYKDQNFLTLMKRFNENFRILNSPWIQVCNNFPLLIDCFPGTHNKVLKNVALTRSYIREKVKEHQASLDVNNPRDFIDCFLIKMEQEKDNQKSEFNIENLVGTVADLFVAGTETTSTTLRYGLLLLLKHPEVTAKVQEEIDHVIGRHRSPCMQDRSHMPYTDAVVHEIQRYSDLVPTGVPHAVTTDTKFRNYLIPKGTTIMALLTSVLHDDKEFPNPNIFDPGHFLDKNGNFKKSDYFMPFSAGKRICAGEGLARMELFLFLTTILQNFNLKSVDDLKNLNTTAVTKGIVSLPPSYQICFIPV

[1] = cited from earlier work; for AUC0-∞ mean: healthy subjects, single oral dose 45 mg
[2] = tested on: diabetic preclinical models; conditions: compared with pioglitazone, literature; cited from earlier work
[3] = Eckland et al., Christensen et al.

| Compound | induction in CYPB6 (CYP2B6) | induction in CYP3A4 (CYP3A4) | bladder epithelium hyperplasia (bladder urothelium) | IC50 (2C8) | Ki (2C8) | range in exposure (AUC) [1, 3] | variability (CV %) in clearance [1, 3] | AUC0-∞ mean ([1]; study a) | AUC0-∞ mean ([1]; study b) | AUC0-∞ mean ([1]; study c) | pharmacological activity [2] |
| --- | --- | --- | --- | --- | --- | --- | --- | --- | --- | --- | --- |
| CCc1ccc(CCOc2ccc(CC3SC(=O)NC3=O)cc2)nc1 (stereo not drawn) [pioglitazone] | 2.35 fold | 4.79 fold | only observed in the pioglitazone group | 9.38 µM | 1.69 µM | up to 10 fold | 40%-50% | 13854 ng·h/mL | 14458 ng·h/mL | 14071 ng·h/mL |  |
| CC(=O)c1ccc(CCOc2ccc(CC3SC(=O)NC3=O)cc2)nc1 (stereo not drawn) [M-III, reference compound] |  |  |  |  |  |  |  |  |  |  | less active than pioglitazone |
| CC(O)c1ccc(CCOc2ccc(CC3SC(=O)NC3=O)cc2)nc1 (stereo not drawn) [(1), 5-[[4-[2-[5-(1-hydroxyethyl)pyridin-2-yl]ethoxy]phenyl]methyl]-1,3-thiazolidine-2,4-dione] |  |  |  |  |  |  |  |  |  |  | less active than pioglitazone |

From patent US11938122B2, “5-[[4-[2-[5-(1-hydroxyethyl)pyridin-2-yl]ethoxy]phenyl]methyl]-1,3- thiazolidine-2,4-dione for treating nonalcoholic fatty liver disease” (Minoryx Therapeutics S.L., priority 2016, dated 2024)
